In article PMC5415608, “The Effects of Herbicides Targeting Aromatic and Branched Chain Amino Acid Biosynthesis Support the Presence of Functional Pathways in Broomrape” (Frontiers in Plant Science, 2017):

Experiments:
[1] = test system: T1, ALS (P. aegyptiaca acetolactate synthase); experiment: colorimetric acetoin assay (creatine/alpha-naphthol, […] nm), partially purified extract; format: biochemical, Phelipanche aegyptiaca; details: flowering shoot enzyme; 167 mM pyruvate, 16.7 mM MgCl2, 1.67 mM TPP, 16.6 μM FAD, pH 7.0, 37°C, 60 min; read-out: ID50 (the source's name)
T1 construct: single gene copy found; predicted 42-residue chloroplast transit peptide

[2] = test system: T2, ALS from young tomato leaves; experiment: as above; format: biochemical, Solanum lycopersicum; details: young leaf enzyme; 167 mM pyruvate, 16.7 mM MgCl2, 1.67 mM TPP, 16.6 μM FAD, pH 7.0, 37°C, 60 min; read-out: ID50 (the source's name)
T2 construct: gene ALS1; native, partially purified extract of young tomato leaves

[3] = test system: T3, EPSPS (P. aegyptiaca 5-enolpyruvylshikimate-3-phosphate synthase); experiment: colorimetric phosphate release assay ([…] nm), partially purified extract; format: biochemical, Phelipanche aegyptiaca; details: callus enzyme; 1 mM shikimate-3-phosphate (natural substrate), 0.1 mM phosphoenolpyruvate, 500 mM MES pH 5.5, 2 mM DTT, 30°C, 15 min; read-out: ID50 (the source's name)
T3 construct: single gene copy found; predicted 64-residue chloroplast transit peptide

Structure (SMILES)	IC50 [1]	IC50 [2]	IC50 [3]
Cc1cnc(C2=NC(C)(C(C)C)C(=O)N2)c(C(=O)O)c1 (centres unmarked) [imazapic]	2070 ± 70 nM	~470 nM	–
CC(C)C1(C)N=C(c2ncccc2C(=O)O)NC1=O (centres unmarked) [imazapyr]	11600 ± 1200 nM	–	–
O=C(O)CNCP(=O)(O)O [glyphosate]	–	–	~8000 nM
CCS(=O)(=O)c1cccnc1S(=O)(=O)NC(=O)Nc1nc(OC)cc(OC)n1 [rimsulfuron]	110 ± 30 nM	–	–
